Several values for one entry are separate records, joined by “and”; a condition that tells them apart may be missing. Identical values can stand only once. Inconclusive results and toxic doses are left out.
Tested on: BDF1 mice, P1081 chloroleukemia ip, survival T/C
Assay: NCI In Vivo Anticancer Drug Screen. Data for tumor model P1081 Chloroleukemia (intraperitoneal) in B6D2F1 (BDF1) mice
Conditions: endpoint: mean survival time, higher = longer survival
Protocol: The antitumor activity of compounds was measured in mice bearing transplantable tumors. Survival or tumor size were measured and the results are expressed as the measurement made in the treated group (T) divided by the measurement made in the vehicle treated control group (C). The tumor model used in this assay is P1081 Chloroleukemia (intraperitoneal) in B6D2F1 (BDF1) mice

[1] = dose: 6.25 mg/kg/injection, schedule: Q01DX Z (ip), vehicle: carboxymethylcellulose (CMC)
[2] = dose: 12.5 mg/kg/injection, schedule: Q01DX Z (ip), vehicle: carboxymethylcellulose (CMC)
[3] = dose: 50.0 mg/kg/injection, schedule: Q01DX Z (ip), vehicle: carboxymethylcellulose (CMC)
[4] = dose: 100.0 mg/kg/injection, schedule: Q01DX Z (ip), vehicle: saline
[5] = dose: 45.0 mg/kg/injection, schedule: Q01DX010 (ip), vehicle: saline
[6] = dose: 25.0 mg/kg/injection, schedule: Q01DX010 (ip), vehicle: saline
[7] = dose: 50.0 mg/kg/injection, schedule: Q01DX010 (ip), vehicle: saline
[8] = dose: 100.0 mg/kg/injection, schedule: Q01DX010 (ip), vehicle: saline
[9] = dose: 31.3 mg/kg/injection, schedule: Q01DX010 (ip), vehicle: saline
[10] = dose: 62.5 mg/kg/injection, schedule: Q01DX010 (ip), vehicle: saline
[11] = dose: 125.0 mg/kg/injection, schedule: Q01DX010 (ip), vehicle: saline
[12] = dose: 8.0 mg/kg/injection, schedule: Q01DX010 (ip), vehicle: saline
[13] = dose: 16.0 mg/kg/injection, schedule: Q01DX010 (ip), vehicle: saline
[14] = dose: 32.0 mg/kg/injection, schedule: Q01DX010 (ip), vehicle: saline
[15] = dose: 64.0 mg/kg/injection, schedule: Q01DX010 (ip), vehicle: saline

CN(N=O)C(=O)NC(C=O)C(O)C(O)C(O)CO (configuration not stated)
T/C [1]: 93 % of control | T/C [2]: 102 % of control | T/C (dose: 25.0 mg/kg/injection, schedule: Q01DX Z (ip), vehicle: carboxymethylcellulose (CMC)): 112 % of control | T/C [3]: 100 % of control | T/C (dose: 50.0 mg/kg/injection, schedule: Q01DX Z (ip), vehicle: saline): 115 % of control | T/C [4]: 107 % of control | T/C (dose: 200.0 mg/kg/injection, schedule: Q01DX Z (ip), vehicle: saline): 88 % of control

O=P1(N(CCCl)CCCl)NCCCO1 (configuration not stated)
T/C (dose: 3.12 mg/kg/injection, schedule: Q01DX Z (ip), vehicle: saline): 110 % of control | T/C (dose: 6.25 mg/kg/injection, schedule: Q01DX Z (ip), vehicle: saline): 119 % of control | T/C (dose: 6.3 mg/kg/injection, schedule: Q01DX Z (ip), vehicle: saline): 102 % of control | T/C (dose: 11.3 mg/kg/injection, schedule: Q01DX010 (ip), vehicle: saline): 113 % of control and 117 % of control (2×) | T/C (dose: 22.5 mg/kg/injection, schedule: Q01DX010 (ip), vehicle: saline): 107 % of control and 120 % of control and 121 % of control | T/C [5]: 105 % of control and 107 % of control | T/C (dose: 90.0 mg/kg/injection, schedule: Q01DX010 (ip), vehicle: saline): 105 % of control and 90 % of control | T/C [4]: 115 % of control | T/C (dose: 180.0 mg/kg/injection, schedule: Q01DX010 (ip), vehicle: saline): 87 % of control

Cc1n[nH]c(=O)[nH]c1=O
T/C (dose: 200.0 mg/kg/injection, schedule: Q01DX Z (ip), vehicle: other): 98 % of control | T/C (dose: 400.0 mg/kg/injection, schedule: Q01DX Z (ip), vehicle: other): 105 % of control | T/C (dose: 800.0 mg/kg/injection, schedule: Q01DX Z (ip), vehicle: other): 106 % of control and 96 % of control

CC(=O)NC1=C(N2CC2)C(=O)C(NC(C)=O)=C(N2CC2)C1=O
T/C (dose: 250.0 micrograms/kg/injection, schedule: Q01DX010 (ip), vehicle: saline): 188 % of control and 210 % of control | T/C (dose: 500.0 micrograms/kg/injection, schedule: Q01DX010 (ip), vehicle: saline): 255 % of control and 270 % of control | T/C (dose: 1000.0 micrograms/kg/injection, schedule: Q01DX010 (ip), vehicle: saline): 115 % of control

COc1cc(-c2ccc(Nc3ccccc3C(=O)O)c(OC)c2)ccc1Nc1ccccc1C(=O)O
T/C (dose: 12.5 mg/kg/injection, schedule: Q01DX010 (ip), vehicle: saline): 116 % of control | T/C [6]: 122 % of control

O=C1C(NC(=O)C2CCCCC2)=C(N2CC2)C(=O)C(NC(=O)C2CCCCC2)=C1N1CC1
T/C (dose: 4.7 mg/kg/injection, schedule: Q01DX Z (ip), vehicle: carboxymethylcellulose (CMC)): 118 % of control | T/C (dose: 9.4 mg/kg/injection, schedule: Q01DX Z (ip), vehicle: carboxymethylcellulose (CMC)): 109 % of control and 103 % of control | T/C (dose: 18.8 mg/kg/injection, schedule: Q01DX Z (ip), vehicle: carboxymethylcellulose (CMC)): 117 % of control | T/C [6]: 90 % of control | T/C (dose: 37.5 mg/kg/injection, schedule: Q01DX Z (ip), vehicle: carboxymethylcellulose (CMC)): 112 % of control and 117 % of control | T/C [7]: 90 % of control | T/C (dose: 75.0 mg/kg/injection, schedule: Q01DX Z (ip), vehicle: carboxymethylcellulose (CMC)): 109 % of control | T/C [8]: 90 % of control | T/C (dose: 150.0 mg/kg/injection, schedule: Q01DX Z (ip), vehicle: carboxymethylcellulose (CMC)): 116 % of control | T/C (dose: 300.0 mg/kg/injection, schedule: Q01DX Z (ip), vehicle: carboxymethylcellulose (CMC)): 109 % of control | T/C (dose: 600.0 mg/kg/injection, schedule: Q01DX Z (ip), vehicle: carboxymethylcellulose (CMC)): 88 % of control

CCn1cnc2c(=S)nc[nH]c21
T/C (dose: 7.75 mg/kg/injection, schedule: Q01DX Z (ip), vehicle: carboxymethylcellulose (CMC)): 112 % of control | T/C (dose: 15.5 mg/kg/injection, schedule: Q01DX Z (ip), vehicle: carboxymethylcellulose (CMC)): 101 % of control | T/C (dose: 15.6 mg/kg/injection, schedule: Q01DX010 (ip), vehicle: saline): 110 % of control and 105 % of control | T/C (dose: 31.0 mg/kg/injection, schedule: Q01DX Z (ip), vehicle: carboxymethylcellulose (CMC)): 105 % of control | T/C [9]: 100 % of control and 105 % of control | T/C [10]: 110 % of control and 105 % of control | T/C (dose: 62.5 mg/kg/injection, schedule: Q01DX Z (ip), vehicle: carboxymethylcellulose (CMC)): 110 % of control | T/C (dose: 63.0 mg/kg/injection, schedule: Q01DX Z (ip), vehicle: carboxymethylcellulose (CMC)): 98 % of control | T/C [11]: 115 % of control | T/C (dose: 125.0 mg/kg/injection, schedule: Q01DX Z (ip), vehicle: carboxymethylcellulose (CMC)): 86 % of control

O=c1[nH]c(=O)n(C2CC(O)C(CO)O2)cc1F (configuration not stated)
T/C (dose: 5.0 mg/kg/injection, schedule: Q01DX010 (ip), vehicle: saline): 110 % of control | T/C [1]: 124 % of control | T/C (dose: 10.0 mg/kg/injection, schedule: Q01DX010 (ip), vehicle: saline): 120 % of control and 104 % of control | T/C [2]: 122 % of control | T/C (dose: 20.0 mg/kg/injection, schedule: Q01DX010 (ip), vehicle: saline): 110 % of control | T/C (dose: 40.0 mg/kg/injection, schedule: Q01DX010 (ip), vehicle: saline): 155 % of control and 250 % of control | T/C [3]: 172 % of control

CCCSc1ncnc2nc[nH]c12
T/C [1]: 111 % of control | T/C [2]: 122 % of control | T/C [9]: 105 % of control and 100 % of control | T/C [10]: 105 % of control and 111 % of control | T/C [11]: 105 % of control and 111 % of control | T/C (dose: 250.0 mg/kg/injection, schedule: Q01DX010 (ip), vehicle: saline): 122 % of control and 100 % of control

c1ccc(CNc2ncnc3[nH]ncc23)cc1
T/C (dose: 0.98 mg/kg/injection, schedule: Q01DX Z (ip), vehicle: carboxymethylcellulose (CMC)): 93 % of control | T/C (dose: 1.95 mg/kg/injection, schedule: Q01DX Z (ip), vehicle: carboxymethylcellulose (CMC)): 94 % of control | T/C (dose: 3.9 mg/kg/injection, schedule: Q01DX Z (ip), vehicle: carboxymethylcellulose (CMC)): 93 % of control | T/C (dose: 7.8 mg/kg/injection, schedule: Q01DX Z (ip), vehicle: carboxymethylcellulose (CMC)): 112 % of control | T/C [12]: 111 % of control | T/C [13]: 111 % of control and 116 % of control | T/C [14]: 111 % of control and 122 % of control | T/C [15]: 111 % of control

COc1cc2c(cc1I)-c1c(cc(OC)c(OC)c1OC)CC[C@@H]2NC(C)=O
T/C [5]: 120 % of control | T/C (dose: 67.0 mg/kg/injection, schedule: Q01DX010 (ip), vehicle: saline): 115 % of control | T/C [8]: 115 % of control | T/C (dose: 150.0 mg/kg/injection, schedule: Q01DX010 (ip), vehicle: saline): 111 % of control and 115 % of control | T/C (dose: 225.0 mg/kg/injection, schedule: Q01DX010 (ip), vehicle: saline): 100 % of control

Nc1c(I)cc(I)cc1C(=O)O
T/C [6]: 100 % of control | T/C [7]: 110 % of control and 88 % of control | T/C [8]: 100 % of control and 105 % of control | T/C (dose: 200.0 mg/kg/injection, schedule: Q01DX010 (ip), vehicle: saline): 111 % of control and 105 % of control

CC(CCC(C)OS(C)(=O)=O)OS(C)(=O)=O (configuration not stated)
T/C (dose: 1.25 mg/kg/injection, schedule: Q01DX Z (ip), vehicle: carboxymethylcellulose (CMC)): 95 % of control | T/C (dose: 2.5 mg/kg/injection, schedule: Q01DX Z (ip), vehicle: carboxymethylcellulose (CMC)): 111 % of control | T/C (dose: 4.0 mg/kg/injection, schedule: Q01DX010 (ip), vehicle: saline): 100 % of control | T/C [12]: 105 % of control | T/C [13]: 115 % of control and 105 % of control | T/C [14]: 116 % of control | T/C [15]: 88 % of control

Cn1cnc([N+](=O)[O-])c1Sc1nc(N)nc2nc[nH]c12
T/C (dose: 0.25 mg/kg/injection, schedule: Q01DX Z (ip), vehicle: carboxymethylcellulose (CMC)): 90 % of control | T/C (dose: 0.5 mg/kg/injection, schedule: Q01DX Z (ip), vehicle: carboxymethylcellulose (CMC)): 110 % of control | T/C (dose: 1.0 mg/kg/injection, schedule: Q01DX Z (ip), vehicle: carboxymethylcellulose (CMC)): 111 % of control | T/C (dose: 2.0 mg/kg/injection, schedule: Q01DX Z (ip), vehicle: carboxymethylcellulose (CMC)): 110 % of control | T/C (dose: 8.0 mg/kg/injection, schedule: Q01DX Z (ip), vehicle: carboxymethylcellulose (CMC)): 86 % of control

From PubChem BioAssay AID246 (DTP/NCI, 2004)
